Results from US8269000B2, “Substituted pyrimidine and triazine compounds” (Gruenenthal GmbH, priority 2008, dated 2012).

molecular target: T1, rat B1R (Rattus norvegicus, UniProt P97583); test: FLIPR Ca2+ functional study on bradykinin receptor 1 (rB1R CHO K1 cells); type: cell-based; conditions: % inhibition rat B1R at 10 μM
T1 construct: expressed in transfected cells; host or cells: CHO K1 cells
T1 sequence (P97583 1-337): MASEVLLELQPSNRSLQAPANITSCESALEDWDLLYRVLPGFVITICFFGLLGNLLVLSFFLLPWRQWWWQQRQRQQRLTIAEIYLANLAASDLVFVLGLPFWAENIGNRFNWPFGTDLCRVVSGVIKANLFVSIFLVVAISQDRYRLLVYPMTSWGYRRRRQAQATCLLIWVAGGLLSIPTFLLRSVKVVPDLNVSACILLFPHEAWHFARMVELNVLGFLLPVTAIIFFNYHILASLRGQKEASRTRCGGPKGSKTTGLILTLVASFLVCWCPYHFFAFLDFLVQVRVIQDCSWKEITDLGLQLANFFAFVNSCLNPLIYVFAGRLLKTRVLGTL
Experimental: The agonistic or antagonistic activity of substances can be quantified on the bradykinin receptor 1 (B1R) of the species human and rat using ectopically expressing cell lines (CHO K1 cells) and with the aid of a Ca^2+-sensitive dye (Fluo-4) using a fluorescent imaging plate reader (FLIPR). The indication in % activation is based on the Ca^2+ signal after addition of Lys-Des-Arg^9-bradykinin (0.5 nM) or Des-Arg^9-bradykinin (100 nM). Antagonists lead to suppression of the Ca^2+ influx after the addition of the agonist. % Inhibition compared with the maximum achievable inhibition is indicated.
The agonistic or antagonistic activity of substances can be determined on the bradykinin receptor 1 (B1R) of the species human and rat using the following assay. According to this assay, the Ca^2+ influx through the channel is quantified with the aid of a Ca^2+-sensitive dye (Fluo-4 type, Molecular Probes Europe BV, Leiden, Netherlands) using a Fluorescent Imaging Plate Reader (FLIPR, Molecular Devices, Sunnyvale, USA).
Chinese hamster ovary cells (CHO K1 cells) which have been stably transfected with the human B1R gene (hB1R cells) or with the B1R gene of the rat (rB1R cells) are used. For functional studies, the cells are plated out on black 96-well plates having a clear base (BD Biosciences, Heidelberg, Germany or Greiner, Frickenhausen, Germany) in a density of 20,000-35,000 cells/well. The cells are left overnight at 37° C. and with 5% CO2 in culture medium (hB1R cells: Nutrient Mixture Ham's F12, Gibco Invitrogen GmbH, Karlsruhe, Germany or DMEM, Sigma-Aldrich, Taufkirchen, Germany; rB1R cells: D-MEM/F12, Gibco Invitrogen GmbH, Karlsruhe, Germany), with 10 vol.% FBS (fetal bovine serum, Gibco Invitrogen GmbH, Karlsruhe, Germany or PAN Biotech GmbH, Aidenbach, Germany). On the following day, the cells are loaded for 60 minutes at 37° C. with 2.13 μM Fluo-4 (Molecular Probes Europe BV, Leiden, Netherlands) in HBSS buffer (Hank's buffered saline solution, Gibco Invitrogen GmbH, Karlsruhe, Germany) […] (Sigma-Aldrich, Taufkirchen, Germany) and 10 mM HEPES (Sigma-Aldrich, Taufkirchen, Germany). The plates are then washed twice with HBSS buffer, and HBSS buffer additionally containing 0.1% BSA (bovine serum albumin; Sigma-Aldrich, Taufkirchen, Germany), 5.6 mM glucose and 0.05% gelatin (Merck KGaA, Darmstadt, Germany) is added to the plates. After incubation for a further 20 minutes at room temperature, the plates are inserted into the FLIPR for Ca^2+ measurement. Alternatively, washing is carried out with buffer A (15 mM HEPES, 80 mM NaCl, 5 mM KCl, 1.2 mM CaCl2, 0.7 mM MgSO4, 2 g/l glucose, 2.5 mM probenecid) followed by loading with buffer A with added 2.5 μM Fluo-4 and 0.025% Pluronic F127 (Sigma-Aldrich, Taufkirchen, Germany). The cells are then washed twice with buffer A and incubated for 30 minutes at room temperature with buffer A additionally containing 0.05% BSA and 0.05% gelatin and are then inserted into the FLIPR for Ca^2+ measurement. The Ca^2+-dependent fluorescence is measured before and after the addition of substances (λex=488 nm, λem=540 nm). Quantification is carried out by measuring the highest fluorescence intensity (FC, fluorescence counts) over time.
The FLIPR protocol consists of two substance additions. Test substances (10 μM) are first pipetted onto the cells and the Ca^2+ influx is compared with the control (hB1R: Lys-Des-Arg^9-bradykinin>=50 nM; rB1R: Des-Arg^9-bradykinin 10 μM). This gives the activation in %, based on the Ca^2+ signal after addition of Lys-Des-Arg^9-bradykinin (>=50 nM) or Des-Arg^9-bradykinin (10 μM). After 10-20 minutes' incubation, Lys-Des-Arg^9-bradykinin (hB1R) or Des-Arg^9-bradykinin (rB1R) is applied in the concentration of the EC80, and the influx of Ca^2+ is likewise determined. Antagonists lead to suppression of the Ca^2+ influx. The % inhibition compared with the maximum achievable inhibition is calculated. […]

Row | % inh. (rat B1R) 10 μM [%] | Compound
1 | 63 | COc1cc(C)c(S(=O)(=O)N2CCCC(Oc3nccc(N4CCC(CCN5CCCCC5)CC4)n3)C2)c(C)c1 (centres unmarked) [G_CC-027]
2 | 102 | COc1cc(C)c(S(=O)(=O)N2CCC[C@H]2COc2nccc(N3CCC(CCN4CCCCC4)CC3)n2)c(C)c1 [G_CC-037]

Row | Compound | % inh. (rat B1R) 10 μM [%]
3 | COc1cc(C)c(S(=O)(=O)N(C)CCOc2nccc(N3CCC(CCN4CCCCC4)CC3)n2)c(C)c1 [G_CC-031] | 104

same assay, conditions: CHO-K1, % inhibition rat B1R at 10 μM, read-out: % inh. (rat B1R) 10 μM

Row | inhibition at 10 µM [%] | Compound
4 | 102 | COc1cc(C)c(S(=O)(=O)N2CCC[C@H]2COc2nccc(N3CCC(O)(c4cccnc4)CC3)n2)c(C)c1 [G_CC-020, 1-[2-[[(2S)-1-(4-methoxy-2,6-dimethylphenyl)sulfonyl-2-pyrrolidinyl]methoxy]-4-pyrimidinyl]-4-(3-pyridyl)-4-piperidinol]
5 | 104 | COc1cc(C)c(S(=O)(=O)N2CCCCC2COc2nccc(N3CCC4(CCN(Cc5ccccc5)C4)C3)n2)c(C)c1 (centres unmarked) [G_CC-022, 3-benzyl-7-[2-[[1-(4-methoxy-2,6-dimethylphenyl)sulfonyl-2-piperidinyl]methoxy]-4-pyrimidinyl]-3,7-diazaspiro[4.4]nonane]
6 | 50 | COc1cc(C)c(S(=O)(=O)N2CCCCC2COc2nccc(N3CCC4(CC3)OCc3ccccc34)n2)c(C)c1 (centres unmarked) [G_CC-023, 1′-[2-[[1-(4-methoxy-2,6-dimethylphenyl)sulfonyl-2-piperidinyl]methoxy]-4-pyrimidinyl]spiro[1H-isobenzofuran-3,4′-piperidine]]
7 | 73 | COc1cc(C)c(S(=O)(=O)N2CCCCC2COc2nccc(N3CCC(n4c(=O)[nH]c5cc(Cl)ccc54)CC3)n2)c(C)c1 (centres unmarked) [G_CC-024, 6-chloro-3-[1-[2-[[1-(4-methoxy-2,6-dimethylphenyl)sulfonyl-2-piperidinyl]methoxy]-4-pyrimidinyl]-4-piperidinyl]-1H-benzimidazol-2-one]
8 | 95 | COc1cc(C)c(S(=O)(=O)N2CCCCC2COc2nccc(N3CCC4(CC3)C(=O)NCN4c3ccccc3)n2)c(C)c1 (centres unmarked) [G_CC-025, 8-[2-[[1-(4-methoxy-2,6-dimethylphenyl)sulfonyl-2-piperidinyl]methoxy]-4-pyrimidinyl]-4-phenyl-2,4,8-triazaspiro[4.5]decan-1-one]
9 | 104 | COc1cc(C)c(S(=O)(=O)N(C)CCOc2nccc(N3CCC4(CCN(Cc5ccccc5)C4)C3)n2)c(C)c1 (centres unmarked) [G_CC-028, N-[2-[[4-(3-benzyl-3,7-diazaspiro[4.4]nonan-7-yl)-2-pyrimidinyl]oxy]ethyl]-4-methoxy-N,2,6-trimethylbenzenesulfonamide]
10 | 52 | COc1cc(C)c(S(=O)(=O)N(C)CCOc2nccc(N3CCC4(CC3)OCc3ccccc34)n2)c(C)c1 [G_CC-029, 4-methoxy-N,2,6-trimethyl-N-[2-[[4-(1′-spiro[1H-isobenzofuran-3,4′-piperidin]yl)-2-pyrimidinyl]oxy]ethyl]benzenesulfonamide]
11 | 79 | COc1cc(C)c(S(=O)(=O)N(C)CCOc2nccc(N3CCC4(CC3)C(=O)NCN4c3ccccc3)n2)c(C)c1 [G_CC-030, 4-methoxy-N,2,6-trimethyl-N-[2-[[4-(1-oxo-4-phenyl-2,4,8-triazaspiro[4.5]decan-8-yl)-2-pyrimidinyl]oxy]ethyl]benzenesulfonamide]
12 | 68 | COc1cc(C)c(S(=O)(=O)N2CCC[C@H]2COc2nccc(N3CCC4(CC3)OCc3ccccc34)n2)c(C)c1 [G_CC-033, 1′-[2-[[(2S)-1-(4-methoxy-2,6-dimethylphenyl)sulfonyl-2-pyrrolidinyl]methoxy]-4-pyrimidinyl]spiro[1H-isobenzofuran-3,4′-piperidine]]
13 | 93 | COc1cc(C)c(S(=O)(=O)N2CCC[C@H]2COc2nccc(N3CCC(n4c(=O)[nH]c5cc(Cl)ccc54)CC3)n2)c(C)c1 [G_CC-034, 6-chloro-3-[1-[2-[[(2S)-1-(4-methoxy-2,6-dimethylphenyl)sulfonyl-2-pyrrolidinyl]methoxy]-4-pyrimidinyl]-4-piperidinyl]-1H-benzimidazol-2-one]
14 | 94 | COc1cc(C)c(S(=O)(=O)N2CCCCC2COc2nccc(N3CCC4(CC3)CCN(c3ccc(F)cc3)C4=O)n2)c(C)c1 (centres unmarked) [G_CC-038, 3-(4-fluorophenyl)-8-[2-[[1-(4-methoxy-2,6-dimethylphenyl)sulfonyl-2-piperidinyl]methoxy]-4-pyrimidinyl]-3,8-diazaspiro[4.5]decan-4-one]
15 | 87 | COc1cc(C)c(S(=O)(=O)N(C)CCOc2nccc(N3CCC4(CC3)CCN(c3ccc(F)cc3)C4=O)n2)c(C)c1 [G_CC-042, N-[2-[[4-[3-(4-fluorophenyl)-4-oxo-3,8-diazaspiro[4.5]decan-8-yl]-2-pyrimidinyl]oxy]ethyl]-4-methoxy-N,2,6-trimethylbenzenesulfonamide]
16 | 70 | COc1cc(C)c(S(=O)(=O)N(C)CCOc2nccc(N3CCC4(CC3)C(=O)NCC4c3cccc(C(F)(F)F)c3)n2)c(C)c1 (centres unmarked) [G_CC-043, 4-methoxy-N,2,6-trimethyl-N-[2-[[4-[4-oxo-1-[3-(trifluoromethyl)phenyl]-3,8-diazaspiro[4.5]decan-8-yl]-2-pyrimidinyl]oxy]ethyl]benzenesulfonamide]
17 | 68 | COc1cc(C)c(S(=O)(=O)N(C)CCOc2nccc(N3CCC4(CC3)C(=O)N(C)CC4c3ccc(F)cc3)n2)c(C)c1 (centres unmarked) [G_CC-044, N-[2-[[4-[1-(4-fluorophenyl)-3-methyl-4-oxo-3,8-diazaspiro[4.5]decan-8-yl]-2-pyrimidinyl]oxy]ethyl]-4-methoxy-N,2,6-trimethylbenzenesulfonamide]
18 | 96 | COc1cc(C)c(S(=O)(=O)N(C)CCOc2nccc(N3CCC4(CCN(Cc5ccc(F)cc5)C4=O)CC3)n2)c(C)c1 [G_CC-045, N-[2-[[4-[3-[(4-fluorophenyl)methyl]-4-oxo-3,8-diazaspiro[4.5]decan-8-yl]-2-pyrimidinyl]oxy]ethyl]-4-methoxy-N,2,6-trimethylbenzenesulfonamide]
19 | 96 | COc1cc(C)c(S(=O)(=O)N(C)CCOc2nccc(N3CCC4(CCN(Cc5ccccc5)C4=O)CC3)n2)c(C)c1 [G_CC-046, N-[2-[[4-(3-benzyl-4-oxo-3,8-diazaspiro[4.5]decan-8-yl)-2-pyrimidinyl]oxy]ethyl]-4-methoxy-N,2,6-trimethylbenzenesulfonamide]
20 | 72 | COc1cc(C)c(S(=O)(=O)N2CCC[C@H]2COc2nccc(N3CCC4(CC3)C(=O)NCC4c3cccc(C(F)(F)F)c3)n2)c(C)c1 (stereo partly drawn) [G_CC-049, 8-[2-[[(2S)-1-(4-methoxy-2,6-dimethylphenyl)sulfonyl-2-pyrrolidinyl]methoxy]-4-pyrimidinyl]-1-[3-(trifluoromethyl)phenyl]-3,8-diazaspiro[4.5]decan-4-one]
